# Reference: paper PMC11168191, “Systemic Treatment with siRNA Targeting Gamma-Secretase Activating Protein Inhibits Amyloid-β Accumulation in Alzheimer’s Disease” (Biomaterials Research, 2024)
# Read-outs that look alike come from different tables or passages of the source. Bridge positions count the residues as written; N and C are the ends. Ends that are not written are not given here. I, II: the chains in the order shown.
# Columns and labels:
# N2a cells [1] = experiment: Cytotoxicity, Cell Counting Kit-8 assay; settings: 24 h posttransfection, Cell Counting Kit-8, at tested weight ratio, with siSOD1 (Fig. 1G)
# leptin receptor [2] = target: T1, leptin receptor (Homo sapiens, UniProt P48357); experiment: SPR biosensor binding of peptide to immobilized leptin receptor; settings: for kon: read-out: association constant (Ka)
# T1 construct: purchased R&D Systems
# T1 sequence (P48357 22-1165): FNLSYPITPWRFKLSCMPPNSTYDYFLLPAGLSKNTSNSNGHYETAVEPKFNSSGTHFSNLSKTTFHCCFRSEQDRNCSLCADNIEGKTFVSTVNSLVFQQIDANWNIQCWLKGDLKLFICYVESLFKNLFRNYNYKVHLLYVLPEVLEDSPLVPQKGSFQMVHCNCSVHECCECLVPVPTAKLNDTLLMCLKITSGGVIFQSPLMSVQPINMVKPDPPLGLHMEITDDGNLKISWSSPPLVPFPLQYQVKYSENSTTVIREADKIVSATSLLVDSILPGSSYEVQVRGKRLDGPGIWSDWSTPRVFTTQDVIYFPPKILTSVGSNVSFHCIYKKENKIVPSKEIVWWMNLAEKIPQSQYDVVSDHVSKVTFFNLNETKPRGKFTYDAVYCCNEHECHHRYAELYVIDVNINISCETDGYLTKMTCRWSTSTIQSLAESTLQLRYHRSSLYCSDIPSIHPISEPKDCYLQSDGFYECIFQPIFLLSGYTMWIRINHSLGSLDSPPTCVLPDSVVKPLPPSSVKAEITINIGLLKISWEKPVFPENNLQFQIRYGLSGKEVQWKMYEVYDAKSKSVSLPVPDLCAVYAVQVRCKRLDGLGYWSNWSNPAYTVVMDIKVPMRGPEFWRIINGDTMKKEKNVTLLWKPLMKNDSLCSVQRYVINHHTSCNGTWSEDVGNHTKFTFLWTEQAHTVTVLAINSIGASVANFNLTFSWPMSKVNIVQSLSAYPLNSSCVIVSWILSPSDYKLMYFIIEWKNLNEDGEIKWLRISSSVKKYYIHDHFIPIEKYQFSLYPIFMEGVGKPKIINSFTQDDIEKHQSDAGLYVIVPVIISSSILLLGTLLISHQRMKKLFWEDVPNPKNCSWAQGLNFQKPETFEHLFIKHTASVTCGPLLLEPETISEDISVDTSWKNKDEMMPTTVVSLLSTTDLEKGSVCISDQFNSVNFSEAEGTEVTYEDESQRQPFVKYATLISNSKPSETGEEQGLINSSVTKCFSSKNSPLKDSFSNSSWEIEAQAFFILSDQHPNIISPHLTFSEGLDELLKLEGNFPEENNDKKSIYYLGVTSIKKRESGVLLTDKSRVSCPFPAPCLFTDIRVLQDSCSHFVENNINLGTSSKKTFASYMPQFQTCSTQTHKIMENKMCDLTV
# Procedure: The direct binding of diLep9R3LC or Lep9R3LC to the target was evaluated using a dual-channel surface plasmon resonance (SPR) instrument (Reichert SR7500DC system, Depew, NY). The process of immobilizing the leptin receptor protein (R&D Systems, Minneapolis, MN) onto the sensor chip surface was accomplished using free amine coupling through an 1-ethyl-3-(3-dimethylaminopropyl) carbodiimide hydrochloride (EDC)/N-hydroxysuccinimide (NHS) reaction. The process of the EDC/NHS reaction involves injecting a mixture containing 0.1 M EDC and 0.05 M NHS. Subsequently, the remaining activated carboxyl groups were quenched with 1 M ethanolamine at pH 6.0. All dilutions of the working peptides were prepared in the running buffer (PBS with 1% DMSO) and injected for 3 min (association time) at a flow rate of 50 μl/min followed by a dissociation phase of 3 min. Nonspecific background binding was subtracted from each sensogram using SPR_V4017 Data Acquisition and Alignment Program (Reichert, Depew, NY). Binding rates and constants were independent of flow rate over a wide range. Best-fit kinetic parameters were obtained by global fitting analysis using Scrubber2 (Biologic Software, Australia).
# N2a cells [3] = system: N2a cells
# SOD1 = SOD1 gene silencing in mouse organs and brain regions, qPCR; assay type: in vivo, mice; settings: 400 pmol siSOD1, 100 μg peptide, tail vein, daily for 3 d, n = 8
# Procedure: All procedures were performed in compliance with guidelines and protocols approved by the Institutional Animal Care and Use Committee (IACUC) of Hanyang University. The Balb/c mice were used to test the in vivo delivery of complexed particles to the brain. To ascertain ligand-receptor-mediated delivery of diLep9R3LC:siRNA, the leptin-receptor-deficient (db/db, Jackson Laboratory, ME) strains were utilized. Further, to study therapeutic efficacy of siRNA in AD, 7-month-old male 3xTg (B6;129-Psen1tm1Mpm Tg (APPSwe,tauP301L)1Lfa/Mmjax) mice (Jackson Laboratory, ME) were used. These mice show AD-like pathological and physiological characteristics with respect to formation of Aβ plaques and tangled tau as well as abnormal behaviors. […] In all experiments, a group of control mice (n = 4) were also injected with DPBS (pH 7.4).
# For quantitative polymerase chain reaction (qPCR), total RNA was extracted from N2a cells 24 h posttransfection and homogenized brain samples using the RNAiso kit (Takara, Kyoto, Japan). The RNA was quantified with SYBR premix Ex Taq perfect real time (Takara, Kyoto, Japan) with qPCR primers. In all cases, relative gene expression was calculated in comparison to normalized target mRNA levels in nontreated groups. […] All primers were synthesized from Cosmogenetech (Seoul, Korea), and sequences are depicted below.
# leptin receptor [4] = target: T2, leptin receptor (Mus musculus, UniProt P48356); experiment: SPR
# T2 chain: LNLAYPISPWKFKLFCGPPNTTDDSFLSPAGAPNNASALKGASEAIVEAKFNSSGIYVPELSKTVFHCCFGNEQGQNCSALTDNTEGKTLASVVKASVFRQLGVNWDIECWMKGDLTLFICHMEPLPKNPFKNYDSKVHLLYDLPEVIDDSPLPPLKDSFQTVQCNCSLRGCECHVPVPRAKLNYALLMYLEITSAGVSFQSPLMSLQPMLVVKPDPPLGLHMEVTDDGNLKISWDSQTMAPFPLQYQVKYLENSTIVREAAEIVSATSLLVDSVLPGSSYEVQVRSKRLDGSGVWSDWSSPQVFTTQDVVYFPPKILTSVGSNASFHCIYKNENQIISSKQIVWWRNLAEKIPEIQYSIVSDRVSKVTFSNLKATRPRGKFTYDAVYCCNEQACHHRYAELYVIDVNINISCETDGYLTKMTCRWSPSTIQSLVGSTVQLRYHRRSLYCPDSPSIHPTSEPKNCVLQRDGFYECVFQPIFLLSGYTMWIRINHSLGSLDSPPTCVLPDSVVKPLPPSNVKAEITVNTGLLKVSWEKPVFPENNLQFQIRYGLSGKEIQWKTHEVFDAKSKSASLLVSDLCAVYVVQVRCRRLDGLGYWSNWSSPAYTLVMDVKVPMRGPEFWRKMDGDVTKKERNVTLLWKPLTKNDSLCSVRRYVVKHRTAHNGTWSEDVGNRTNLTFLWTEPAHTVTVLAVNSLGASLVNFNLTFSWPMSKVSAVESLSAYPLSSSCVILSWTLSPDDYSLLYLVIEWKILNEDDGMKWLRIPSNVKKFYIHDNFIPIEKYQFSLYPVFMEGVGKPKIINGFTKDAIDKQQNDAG
molecule,measurement,setting,value
I: YQQVLTSLPSQNVLQIANDLENLRDLLHLLGGGGRRRRRRRRRLLLC / II: YQQVLTSLPSQNVLQIANDLENLRDLLHLLGGGGRRRRRRRRRLLLC (disulfide I:47-II:47) [diLep9R3LC],cytotoxicity,N2a cells [1],did not show any cytotoxicity
same,kon,leptin receptor [2],3300 M⁻¹ s⁻¹
YQQVLTSLPSQNVLQIANDLENLRDLLHLLGGGGRRRRRRRRRLLLC [Lep9R3LC],cytotoxicity,N2a cells [3],did not show any cytotoxicity
same,kon,"leptin receptor [2]; SPR Reichert SR7500DC, amine-coupled receptor, running buffer PBS with 1% DMSO, 3 min association, 3 min dissociation, 50 μl/min, global fit Scrubber2",1100 M⁻¹ s⁻¹
same,Kd,"leptin receptor [2]; SPR, leptin receptor immobilized, PBS with 1% DMSO, global fit, read-out: binding affinity (KD) (Kd/Ka)",1.38 µM
"EVGQSDYSSYARTSIRASLTFGGGGRRRRRRRRRLLLC [scrambled9R, scrambled peptide, nontargeting control]","SOD1 silencing, brain",SOD1,not when used with scrambled peptide
YQQVLTSLPSQNVLQIANDLENLRDLLHLLGGGGRRRRRRRRRLLLC [Lep9R3LC],Kd,leptin receptor [4],1.38 µM
YQQVLTSLPSQNVLQIANDLENLRDLLHLLGGGGRRRRRRRRRLLLC (also: disulfide-linked dimer via C-terminal Cys) [diLep9R3LC],Kd,leptin receptor [4],0.462 µM
